In publication PMC7011995, “Steroids interfere with human carbonic anhydrase activity by using alternative binding mechanisms” (Journal of Enzyme Inhibition and Medicinal Chemistry, 2018):
Like-named read-outs stand apart in the source and are kept apart here.

Columns and labels:
Assay in all cases: stopped-flow CO2 hydration assay, phenol red
Type in all cases: biochemical
[1] = target: T1, hCA II (Homo sapiens, UniProt P00918); settings: read-out: hCAI
T1 construct: gene CA2; recombinant, obtained in-house; cytosolic

[2] = target: T2, hCA IV (Homo sapiens, UniProt P22748); settings: read-out: hCAI
T2 construct: gene CA4; recombinant, obtained in-house
T2 sequence (P22748 19-284): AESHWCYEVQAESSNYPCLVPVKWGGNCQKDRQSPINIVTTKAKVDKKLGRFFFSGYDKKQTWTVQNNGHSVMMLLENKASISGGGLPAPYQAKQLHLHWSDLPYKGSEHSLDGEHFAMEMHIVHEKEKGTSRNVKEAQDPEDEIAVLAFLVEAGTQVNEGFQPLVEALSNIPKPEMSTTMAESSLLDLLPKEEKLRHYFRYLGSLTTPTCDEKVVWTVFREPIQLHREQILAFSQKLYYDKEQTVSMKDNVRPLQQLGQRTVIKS

[3] = target: T3, hCA IX (Homo sapiens, UniProt Q16790); settings: read-out: hCAI
T3 construct: gene CA9; recombinant, obtained in-house; tumor-associated transmembrane isoform

[4] = target: T4, hCA I (Homo sapiens, UniProt P00915)
T4 construct: gene CA1; recombinant, obtained in-house; cytosolic
T4 sequence (P00915 2-261): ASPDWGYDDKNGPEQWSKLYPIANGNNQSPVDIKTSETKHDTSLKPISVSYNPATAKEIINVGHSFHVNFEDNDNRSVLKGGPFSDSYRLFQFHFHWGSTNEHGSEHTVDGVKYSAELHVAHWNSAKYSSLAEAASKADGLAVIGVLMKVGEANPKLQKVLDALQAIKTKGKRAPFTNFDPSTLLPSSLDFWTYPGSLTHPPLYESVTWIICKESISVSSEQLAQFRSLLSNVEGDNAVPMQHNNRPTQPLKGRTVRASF
Text: stopped-flow CO2 hydration assay, phenol red on hCA I

[5] = target: T3, hCA IX
Text: stopped-flow CO2 hydration assay, phenol red on hCA IX

[6] = target: T1, hCA II
Text: stopped-flow CO2 hydration assay, phenol red on hCA II

[7] = target: T2, hCA IV
Text: stopped-flow CO2 hydration assay, phenol red on hCA IV

Structure (SMILES): C[C@]12CCC(=O)C=C1CC[C@@H]1[C@@H]2[C@@H](O)C[C@@]2(C)[C@H]1CC[C@]2(O)C(=O)CO [compound 21, Hydrocortisone]
- Ki [1]: > 100 µM
- Ki [2]: > 100 µM
- Ki [3]: > 100 µM
- Ki ([4]; read-out: hCAI): > 100 µM

Structure (SMILES): C[C@H](CCC(=O)O)[C@H]1CC[C@H]2[C@@H]3[C@H](O)C[C@@H]4C[C@H](O)CC[C@]4(C)[C@H]3CC[C@]12C [compound 1, Chenodeoxycholic acid]
- Ki [2]: > 100 µM
- Ki ([5]; read-out: hCA IX): 63 µM
- Ki ([4]; read-out: hCAI): > 100 µM
- Ki ([6]; read-out: hCA II): 53.9 µM

Structure (SMILES): C[C@]12CC[C@@H]3c4ccc(O)cc4CC[C@H]3[C@@H]1CCC2=O [compound 20, Estron]
- Ki [2]: > 100 µM
- Ki ([5]; read-out: hCA IX): 71.4 µM
- Ki ([4]; read-out: hCAI): > 100 µM
- Ki ([6]; read-out: hCA II): 50.8 µM

Structure (SMILES): C[C@H](CCC(=O)O)[C@H]1CC[C@H]2[C@@H]3[C@H](O)[C@H](O)[C@@H]4C[C@H](O)CC[C@]4(C)[C@H]3CC[C@]12C [compound 9, Hyocholic acid]
- Ki ([7]; read-out: hCA IV): > 100 µM
- Ki ([5]; read-out: hCA IX): 71.9 µM
- Ki ([4]; read-out: hCAI): 83.3 µM
- Ki ([6]; read-out: hCA II): 38.9 µM

Structure (SMILES): C[C@]12CC[C@H](O)CC1=CC[C@@H]1[C@@H]2CC[C@]2(C)C(=O)CC[C@@H]12 [compound 15, Trans-dehydroandrosterone]
- Ki [1]: > 100 µM
- Ki [2]: > 100 µM
- Ki [3]: > 100 µM
- Ki ([4]; read-out: hCAI): > 100 µM

Structure (SMILES): C[C@H](CCC(=O)O)[C@H]1CC[C@H]2[C@@H]3C[C@H](O)[C@@H]4C[C@H](O)CC[C@]4(C)[C@H]3CC[C@]12C [compound 8, Hyodeoxycholic acid]
- Ki [2]: > 100 µM
- Ki ([5]; read-out: hCA IX): 67.7 µM
- Ki ([4]; read-out: hCAI): > 100 µM
- Ki ([6]; read-out: hCA II): 58.4 µM

Structure (SMILES): C[C@]12CCC(=O)C[C@@H]1CC[C@@H]1[C@@H]2CC[C@]2(C)[C@@H](O)CC[C@@H]12 [compound 16, Androstanolone]
- Ki [7]: > 100 µM
- Ki [5]: > 100 µM
- Ki [4]: > 100 µM
- Ki [6]: > 100 µM

Structure (SMILES): C[C@H](CCC(=O)O)[C@H]1CC[C@H]2[C@@H]3CC[C@@H]4C[C@H](O)CC[C@]4(C)[C@H]3C[C@H](O)[C@]12C [compound 4, Deoxycholic acid]
- Ki [2]: > 100 µM
- Ki ([5]; read-out: hCA IX): 55 µM
- Ki ([4]; read-out: hCAI): > 100 µM
- Ki ([6]; read-out: hCA II): 51 µM

Structure (SMILES): C[C@H](CCC(=O)O)[C@H]1CC[C@H]2[C@@H]3[C@H](O)C[C@@H]4C[C@H](O)CC[C@]4(C)[C@H]3C[C@H](O)[C@]12C [compound 2, Cholic acid]
- Ki [2]: > 100 µM
- Ki ([5]; read-out: hCA IX): 47.1 µM
- Ki ([4]; read-out: hCAI): > 100 µM
- Ki ([6]; read-out: hCA II): 48.9 µM

Structure (SMILES): C[C@]12CC[C@@H]3c4ccc(O)cc4CC[C@H]3[C@@H]1CC[C@H]2O [compound 19, α-Estradiol]
- Ki ([7]; read-out: hCA IV): > 100 µM
- Ki ([5]; read-out: hCA IX): 49.6 µM
- Ki ([4]; read-out: hCAI): 87.8 µM
- Ki ([6]; read-out: hCA II): 40.4 µM

Structure (SMILES): C[C@H](CCC(=O)O)[C@H]1CC[C@H]2[C@@H]3CC[C@@H]4C[C@H](O)CC[C@]4(C)[C@H]3CC[C@]12C [compound 3, Lithocholic acid]
- Ki [2]: > 100 µM
- Ki ([5]; read-out: hCA IX): 70.2 µM
- Ki ([4]; read-out: hCAI): > 100 µM
- Ki ([6]; read-out: hCA II): 64.5 µM

Structure (SMILES): CC(C)CCC[C@@H](C)[C@H]1CC[C@H]2[C@@H]3CC=C4C[C@@H](O)CC[C@]4(C)[C@H]3CC[C@]12C [compound 11, Cholesterol]
- Ki [1]: > 100 µM
- Ki [2]: > 100 µM
- Ki [3]: > 100 µM
- Ki ([4]; read-out: hCAI): > 100 µM

Structure (SMILES): C[C@H](CCC(=O)NCC(=O)O)[C@H]1CC[C@H]2[C@@H]3[C@@H](O)C[C@@H]4C[C@H](O)CC[C@]4(C)[C@H]3CC[C@]12C [compound 6, Glycoursodeoxycholic acid]
- Ki [2]: > 100 µM
- Ki ([5]; read-out: hCA IX): 89.9 µM
- Ki ([4]; read-out: hCAI): > 100 µM
- Ki ([6]; read-out: hCA II): 78.4 µM

Structure (SMILES): C[C@H](CCC(=O)O)[C@H]1CC[C@H]2[C@@H]3C(=O)C[C@@H]4CC(=O)CC[C@]4(C)[C@H]3CC(=O)[C@]12C [compound 10, Dehydrocholic acid]
- Ki [2]: > 100 µM
- Ki ([5]; read-out: hCA IX): 53.9 µM
- Ki ([4]; read-out: hCAI): > 100 µM
- Ki ([6]; read-out: hCA II): 57.8 µM

Structure (SMILES): CC(=O)[C@H]1CC[C@H]2[C@@H]3CCC4=CC(=O)CC[C@]4(C)[C@H]3CC[C@]12C [compound 17, Progesterone]
- Ki [1]: > 100 µM
- Ki [2]: > 100 µM
- Ki [3]: > 100 µM
- Ki ([4]; read-out: hCAI): > 100 µM

Structure (SMILES): C[C@H](CCC(=O)O)[C@H]1CC[C@H]2[C@@H]3[C@@H](O)C[C@@H]4C[C@H](O)CC[C@]4(C)[C@H]3CC[C@]12C [compound 5, Ursodeoxycholic acid]
- Ki ([7]; read-out: hCA IV): > 100 µM
- Ki ([5]; read-out: hCA IX): 73.1 µM
- Ki ([4]; read-out: hCAI): 95.9 µM
- Ki ([6]; read-out: hCA II): 71.4 µM

Structure (SMILES): C[C@@H]1CC[C@@]2(OC1)O[C@H]1C[C@H]3[C@@H]4CC=C5C[C@@H](O)CC[C@]5(C)[C@H]4CC[C@]3(C)[C@H]1[C@@H]2C [compound 22, Diosgenin]
- Ki [1]: > 100 µM
- Ki [2]: > 100 µM
- Ki [3]: > 100 µM
- Ki ([4]; read-out: hCAI): > 100 µM

Structure (SMILES): C[C@H](CCC(=O)NCCS(=O)(=O)O)[C@H]1CC[C@H]2[C@@H]3[C@@H](O)C[C@@H]4C[C@H](O)CC[C@]4(C)[C@H]3CC[C@]12C [compound 7, Tauroursodeoxycholic acid]
- Ki [2]: > 100 µM
- Ki ([5]; read-out: hCA IX): 42.9 µM
- Ki ([4]; read-out: hCAI): > 100 µM
- Ki ([6]; read-out: hCA II): 82.9 µM

Structure (SMILES): CC(C)CCC[C@@H](C)[C@H]1CC[C@H]2[C@@H]3CC[C@@H]4C[C@@H](O)CC[C@]4(C)[C@H]3CC[C@]12C [compound 12, Coprostan-3-ol]
- Ki [1]: > 100 µM
- Ki [2]: > 100 µM
- Ki [3]: > 100 µM
- Ki ([4]; read-out: hCAI): > 100 µM

Structure (SMILES): C[C@]12CC[C@H]3[C@@H](CCC4=CC(=O)CC[C@@]43C)[C@@H]1CC[C@@H]2O [compound 13, Testosterone]
- Ki [7]: > 100 µM
- Ki [5]: > 100 µM
- Ki [4]: > 100 µM
- Ki [6]: > 100 µM

Structure (SMILES): C[C@]12CC[C@@H](O)C[C@@H]1CC[C@@H]1[C@@H]2CC[C@]2(C)C(=O)CC[C@@H]12 [compound 14, Androsterone]
- Ki [7]: > 100 µM
- Ki [5]: > 100 µM
- Ki [4]: > 100 µM
- Ki [6]: > 100 µM

Structure (SMILES): CC(=O)[C@H]1CC[C@H]2[C@@H]3CCC4=CC(=O)CC[C@]4(C)[C@H]3[C@H](O)C[C@]12C [compound 18, 11α-Hydroxyprogesterone]
- Ki [1]: > 100 µM
- Ki [2]: > 100 µM
- Ki [3]: > 100 µM
- Ki ([4]; read-out: hCAI): > 100 µM
